pIC50: −log10 of the molar value.
Tested on: 377384-186-R-J1-PDC complex spheroid viability
Test: Anticancer human tumor 377384-186-R-J1-PDC patient-derived pancreatic carcinoma cell line growth inhibition [RAS]
Details: for pIC50: curve of first compound; for viability, T/C: stronger effect = lower value
Method in brief: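 Multi-cell-type spheroids: tumor cells plus HUVEC endothelial cells and mesenchymal stem cells. RAS-pathway inhibitors were combined with targeted agents, each dosed in half-log steps down from clinical Cmax, or from 10 microM when Cmax was unknown.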

[1] = second compound 0.000949 µM, first compound 0.0316 µM
[2] = second compound 0.000949 µM, first compound 0.1 µM
[3] = second compound 0.000949 µM, first compound 0.316 µM
[4] = second compound 0.000949 µM, first compound 1 µM
[5] = second compound 0.000949 µM, first compound 3.16 µM
[6] = second compound 0.000949 µM, first compound 10 µM
[7] = second compound 0.003 µM, first compound 0.0316 µM
[8] = second compound 0.003 µM, first compound 0.1 µM
[9] = second compound 0.003 µM, first compound 0.316 µM
[10] = second compound 0.003 µM, first compound 1 µM
[11] = second compound 0.003 µM, first compound 3.16 µM
[12] = second compound 0.003 µM, first compound 10 µM
[13] = second compound 0.00949 µM, first compound 0.0316 µM
[14] = second compound 0.00949 µM, first compound 0.1 µM
[15] = second compound 0.00949 µM, first compound 0.316 µM
[16] = second compound 0.00949 µM, first compound 1 µM
[17] = second compound 0.00949 µM, first compound 3.16 µM
[18] = second compound 0.00949 µM, first compound 10 µM
[19] = second compound 0.03 µM, first compound 0.0316 µM
[20] = second compound 0.03 µM, first compound 0.1 µM
[21] = second compound 0.03 µM, first compound 0.316 µM
[22] = second compound 0.03 µM, first compound 1 µM
[23] = second compound 0.03 µM, first compound 3.16 µM
[24] = second compound 0.03 µM, first compound 10 µM
[25] = second compound 0.0949 µM, first compound 0.0316 µM
[26] = second compound 0.0949 µM, first compound 0.1 µM
[27] = second compound 0.0949 µM, first compound 0.316 µM
[28] = second compound 0.0949 µM, first compound 1 µM
[29] = second compound 0.0949 µM, first compound 3.16 µM
[30] = second compound 0.0949 µM, first compound 10 µM
[31] = second compound 0.3 µM, first compound 0.0316 µM
[32] = second compound 0.3 µM, first compound 0.1 µM
[33] = second compound 0.3 µM, first compound 0.316 µM
[34] = second compound 0.3 µM, first compound 1 µM
[35] = second compound 0.3 µM, first compound 3.16 µM
[36] = second compound 0.3 µM, first compound 10 µM
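Also: spheroids exposed to compounds for seven days before readout.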

Compound `CC(C)NCC(C(=O)N1CCN(c2ncnc3c2C(C)CC3O)CC1)c1ccc(Cl)cc1` (stereo not drawn) + CCn1c(-c2cccnc2C(C)OC)c2c3cc(ccc31)N1CCOC(CC(NC(=O)C(C(C)C)N(C)C(=O)C3(F)CCN(C(=O)C#CC(C)(C)N(C)C)CC3)C(=O)N3CCCC(N3)C(=O)OCC(C)(C)C2)C1 has a pIC50 (second compound 0.000949 µM) of 5.42, a pIC50 (second compound 0.003 µM) of 5.56 and a pIC50 (second compound 0.00949 µM) of 5.56. The pIC50 (second compound 0.03 µM) was 5.60, the pIC50 (second compound 0.0949 µM) was 5.68 and the pIC50 (second compound 0.3 µM) was 5.67. For the same compound, the viability, T/C [1] was 95.4%, the viability, T/C [2] was 93.3% and the viability, T/C [3] was 88.2%. For the same compound, the viability, T/C [4] was 66.9%, the viability, T/C [5] was 56% and the viability, T/C [6] was 32.1%. For the same compound, the viability, T/C [7] was 104%, the viability, T/C [8] was 106% and the viability, T/C [9] was 85.1%. For the same compound, the viability, T/C [10] was 72.2%, the viability, T/C [11] was 46.9% and the viability, T/C [12] was 29.4%. The viability, T/C [13] was 102%, the viability, T/C [14] was 95.1% and the viability, T/C [15] was 80.8%. It also gave a viability, T/C [16] of 65.3%, a viability, T/C [17] of 48.4% and a viability, T/C [18] of 31%. It also gave a viability, T/C [19] of 100%, a viability, T/C [20] of 85.1% and a viability, T/C [21] of 91.4%. For the same compound, the viability, T/C [22] was 66.8%, the viability, T/C [23] was 46.2% and the viability, T/C [24] was 29.3%. It also gave a viability, T/C [25] of 91.2%, a viability, T/C [26] of 86.9% and a viability, T/C [27] of 79.2%. The viability, T/C [28] was 59.6%, the viability, T/C [29] was 44.8% and the viability, T/C [30] was 29.3%. The viability, T/C [31] was 69.4%, the viability, T/C [32] was 78.7% and the viability, T/C [33] was 67.2%. The viability, T/C [34] was 59.8%, the viability, T/C [35] was 45.3% and the viability, T/C [36] was 27.5%.

In the case of `CC(C)n1nc(-c2ccc3oc(N)nc3c2)c2c(N)ncnc21` + CCn1c(-c2cccnc2C(C)OC)c2c3cc(ccc31)N1CCOC(CC(NC(=O)C(C(C)C)N(C)C(=O)C3(F)CCN(C(=O)C#CC(C)(C)N(C)C)CC3)C(=O)N3CCCC(N3)C(=O)OCC(C)(C)C2)C1, the pIC50 (second compound 0.000949 µM) was under 7.00, the pIC50 (second compound 0.003 µM) was under 7.00 and the pIC50 (second compound 0.00949 µM) was under 7.00. The pIC50 (second compound 0.03 µM) was under 7.00, the pIC50 (second compound 0.0949 µM) was under 7.00 and the pIC50 (second compound 0.3 µM) was 8.11. It also gave a viability, T/C (second compound 0.000949 µM, first compound 0.000316 µM) of 96.9%, a viability, T/C (second compound 0.000949 µM, first compound 0.001 µM) of 92% and a viability, T/C (second compound 0.000949 µM, first compound 0.00316 µM) of 80.3%. The viability, T/C (second compound 0.000949 µM, first compound 0.01 µM) was 62.1%, the viability, T/C [1] was 31.9% and the viability, T/C [2] was 99%. It also gave a viability, T/C (second compound 0.003 µM, first compound 0.000316 µM) of 93.8%, a viability, T/C (second compound 0.003 µM, first compound 0.001 µM) of 84.8% and a viability, T/C (second compound 0.003 µM, first compound 0.00316 µM) of 86.8%. The viability, T/C (second compound 0.003 µM, first compound 0.01 µM) was 59.4%, the viability, T/C [7] was 37.1% and the viability, T/C [8] was 98.4%. For the same compound, the viability, T/C (second compound 0.00949 µM, first compound 0.000316 µM) was 96.2%, the viability, T/C (second compound 0.00949 µM, first compound 0.001 µM) was 91.7% and the viability, T/C (second compound 0.00949 µM, first compound 0.00316 µM) was 66.6%. For the same compound, the viability, T/C (second compound 0.00949 µM, first compound 0.01 µM) was 55.8%, the viability, T/C [13] was 34.1% and the viability, T/C [14] was 89.8%. It also gave a viability, T/C (second compound 0.03 µM, first compound 0.000316 µM) of 86.6%, a viability, T/C (second compound 0.03 µM, first compound 0.001 µM) of 78.1% and a viability, T/C (second compound 0.03 µM, first compound 0.00316 µM) of 72.3%. For the same compound, the viability, T/C (second compound 0.03 µM, first compound 0.01 µM) was 53.8%, the viability, T/C [19] was 33.7% and the viability, T/C [20] was 101%. For the same compound, the viability, T/C (second compound 0.0949 µM, first compound 0.000316 µM) was 77%, the viability, T/C (second compound 0.0949 µM, first compound 0.001 µM) was 82.2% and the viability, T/C (second compound 0.0949 µM, first compound 0.00316 µM) was 71.4%. For the same compound, the viability, T/C (second compound 0.0949 µM, first compound 0.01 µM) was 55%, the viability, T/C [25] was 37.9% and the viability, T/C [26] was 69.3%. For the same compound, the viability, T/C (second compound 0.3 µM, first compound 0.000316 µM) was 68.8%, the viability, T/C (second compound 0.3 µM, first compound 0.001 µM) was 74.7% and the viability, T/C (second compound 0.3 µM, first compound 0.00316 µM) was 66.8%. It also gave a viability, T/C (second compound 0.3 µM, first compound 0.01 µM) of 45.7%, a viability, T/C [31] of 27.2% and a viability, T/C [32] of 56.1%.

With `CC(Nc1ccc2c(c1)OCCn1cc(N3C(=O)OCC3C(F)F)nc1-2)C(N)=O` (stereo not drawn) + CCn1c(-c2cccnc2C(C)OC)c2c3cc(ccc31)N1CCOC(CC(NC(=O)C(C(C)C)N(C)C(=O)C3(F)CCN(C(=O)C#CC(C)(C)N(C)C)CC3)C(=O)N3CCCC(N3)C(=O)OCC(C)(C)C2)C1 the pIC50 (second compound 0.000949 µM) was 6.19, the pIC50 (second compound 0.003 µM) was 6.15 and the pIC50 (second compound 0.00949 µM) was 6.34. It also gave a pIC50 (second compound 0.03 µM) of 6.29, a pIC50 (second compound 0.0949 µM) of 6.55 and a pIC50 (second compound 0.3 µM) of 6.88. The viability, T/C [1] was 86.7%, the viability, T/C [2] was 68.8% and the viability, T/C [3] was 56.5%. It also gave a viability, T/C [4] of 48%, a viability, T/C [5] of 34% and a viability, T/C [6] of 26.5%. The viability, T/C [7] was 94.1%, the viability, T/C [8] was 74.7% and the viability, T/C [9] was 57.7%. For the same compound, the viability, T/C [10] was 47.2%, the viability, T/C [11] was 35.6% and the viability, T/C [12] was 23.1%. The viability, T/C [13] was 92.5%, the viability, T/C [14] was 70% and the viability, T/C [15] was 53.3%. The viability, T/C [16] was 39.6%, the viability, T/C [17] was 39.2% and the viability, T/C [18] was 26.7%. For the same compound, the viability, T/C [19] was 87.2%, the viability, T/C [20] was 72.3% and the viability, T/C [21] was 55.3%. For the same compound, the viability, T/C [22] was 40.8%, the viability, T/C [23] was 36.6% and the viability, T/C [24] was 28.1%. The viability, T/C [25] was 72.9%, the viability, T/C [26] was 57.2% and the viability, T/C [27] was 49.2%. For the same compound, the viability, T/C [28] was 38.4%, the viability, T/C [29] was 37.5% and the viability, T/C [30] was 24.9%. It also gave a viability, T/C [31] of 70.3%, a viability, T/C [32] of 54.4% and a viability, T/C [33] of 35.8%. The viability, T/C [34] was 38%, the viability, T/C [35] was 30.1% and the viability, T/C [36] was 25%.

`C[C@@H](NC(=O)c1ncnc(N)c1Cl)c1ncc(C(=O)Nc2cc(C(F)(F)F)c(Cl)cn2)s1` + CCn1c(-c2cccnc2C(C)OC)c2c3cc(ccc31)N1CCOC(CC(NC(=O)C(C(C)C)N(C)C(=O)C3(F)CCN(C(=O)C#CC(C)(C)N(C)C)CC3)C(=O)N3CCCC(N3)C(=O)OCC(C)(C)C2)C1 was tested, and the pIC50 (second compound 0.000949 µM) was under 5.00, the pIC50 (second compound 0.003 µM) was under 5.00 and the pIC50 (second compound 0.00949 µM) was under 5.00. The pIC50 (second compound 0.03 µM) was under 5.00, the pIC50 (second compound 0.0949 µM) was under 5.00 and the pIC50 (second compound 0.3 µM) was under 5.00. It also gave a viability, T/C [1] of 106%, a viability, T/C [2] of 109% and a viability, T/C [3] of 113%. For the same compound, the viability, T/C [4] was 133%, the viability, T/C [5] was 128% and the viability, T/C [6] was 111%. The viability, T/C [7] was 102%, the viability, T/C [8] was 104% and the viability, T/C [9] was 120%. It also gave a viability, T/C [10] of 134%, a viability, T/C [11] of 127% and a viability, T/C [12] of 108%. It also gave a viability, T/C [13] of 98%, a viability, T/C [14] of 114% and a viability, T/C [15] of 106%. It also gave a viability, T/C [16] of 129%, a viability, T/C [17] of 150% and a viability, T/C [18] of 108%. For the same compound, the viability, T/C [19] was 110%, the viability, T/C [20] was 106% and the viability, T/C [21] was 129%. It also gave a viability, T/C [22] of 115%, a viability, T/C [23] of 142% and a viability, T/C [24] of 103%. For the same compound, the viability, T/C [25] was 96.8%, the viability, T/C [26] was 98.5% and the viability, T/C [27] was 113%. It also gave a viability, T/C [28] of 118%, a viability, T/C [29] of 130% and a viability, T/C [30] of 99.6%. The viability, T/C [31] was 88.1%, the viability, T/C [32] was 89.3% and the viability, T/C [33] was 85.5%. For the same compound, the viability, T/C [34] was 95.9%, the viability, T/C [35] was 108% and the viability, T/C [36] was 82.4%.
